# Measurements taken from patent US11142525B2 (Pfizer Inc., priority 2018, dated 2021).
# Read-outs that look alike come from different tables or passages of the source.
# What was measured:
# [1] = biological target: human full-length recombinant HPK1 (Homo sapiens (Human), UniProt Q92918); assay: HPK1 biochemical enzyme assay, microfluidic mobility shift assay (MSA); details: read-out: HPK1 Enzyme Assay_Ki
# Method: HPK1 enzyme inhibition was measured using a microfluidic mobility shift assay (MSA). […] The reactions were conducted for 60 min at 37° C., stopped by the addition of 50 μL of 0.015 M EDTA, pH 8, and the extent of reactions (˜15-20% conversion with no inhibitor) was determined after electrophoretic separation of the fluorescently labeled peptide substrate and phosphorylated product on an LabChip EZ Reader II (PerkinElmer, Inc., Waltham, Mass.). […]
# [2] = system: phospho-SLP-76 (Ser376) in Jurkat cells; assay: Phospho-SLP-76 (Ser376) Homogeneous Time Resolved Fluorescence (HTRF) assay in Jurkat cells; assay type: cell-based; details: Homo sapiens, read-out: SLP76 Assay_IC50
# Method: Jurkat cells were seeded at 90,000 cells/well in 90 uL of RPMI1640 growth medium containing 10% FBS and incubated at 37° C. with 5% CO2 overnight. The following day, compounds were serially diluted from a 10 mM top dose for an 11-point 3 fold dilution curve in DMSO. Compounds were intermediately diluted 1:100 into growth media prior to diluting 1:10 on cells for final concentration 10 μM to 0.1 nM in 0.1% DMSO. After 30 minutes pre-treatment with compounds, the cells were stimulated using 200 μg/mL of F(ab)2 complexed anti-CD3 (clone UCTH1) for 15 min at 37° C. with 5% CO2. Stimulation was stopped with ice cold PBS and cells were harvested by centrifugation before lysis in Cisbio lysis buffer (Cisbio, Bedford, Mass.). Lysates were transferred to white, low-volume plates containing anti-phospho-SLP-76-Cryptate plus anti-phospho-SLP-76-d2 HTRF antibodies and incubated overnight at room temperature protected from light according to the manufacturer's protocol (Cisbio, Bedford, Mass.). HTRF was measured on a Perkin Elmer Envision and IC50 values were calculated by concentration-response curve fitting utilizing four-parameter nonlinear regression analyses.
# [3] = mobility shift assay, 75 μM ATP, Morrison equation, tight-binding competitive inhibition
# [4] = 30 min pre-treatment, anti-CD3 stimulation 15 min, HTRF
# [5] = Phospho-SLP-76 (Ser376) HTRF, anti-CD3 stimulation
# Sequence of human full-length recombinant HPK1 (Q92918 whole entry): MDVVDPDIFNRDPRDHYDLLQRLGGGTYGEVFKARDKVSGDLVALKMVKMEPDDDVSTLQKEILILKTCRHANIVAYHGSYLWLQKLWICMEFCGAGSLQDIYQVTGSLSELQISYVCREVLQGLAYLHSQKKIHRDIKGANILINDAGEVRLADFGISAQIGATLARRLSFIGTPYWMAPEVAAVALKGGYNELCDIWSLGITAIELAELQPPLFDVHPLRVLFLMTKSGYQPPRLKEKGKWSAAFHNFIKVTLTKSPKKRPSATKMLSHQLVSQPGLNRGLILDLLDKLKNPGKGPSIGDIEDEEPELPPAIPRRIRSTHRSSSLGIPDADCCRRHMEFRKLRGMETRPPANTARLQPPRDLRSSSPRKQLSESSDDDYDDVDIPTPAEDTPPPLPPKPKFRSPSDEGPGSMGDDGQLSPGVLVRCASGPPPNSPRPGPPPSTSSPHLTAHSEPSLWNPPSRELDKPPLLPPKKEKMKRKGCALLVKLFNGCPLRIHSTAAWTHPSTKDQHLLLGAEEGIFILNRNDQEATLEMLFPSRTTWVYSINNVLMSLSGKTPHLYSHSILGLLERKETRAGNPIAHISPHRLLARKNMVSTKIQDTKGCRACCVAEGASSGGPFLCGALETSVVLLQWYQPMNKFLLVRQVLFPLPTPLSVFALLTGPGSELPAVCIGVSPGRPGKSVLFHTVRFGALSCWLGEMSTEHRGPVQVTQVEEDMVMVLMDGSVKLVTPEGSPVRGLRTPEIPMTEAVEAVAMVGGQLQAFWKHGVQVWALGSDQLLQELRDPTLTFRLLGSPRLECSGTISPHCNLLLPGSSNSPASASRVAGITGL
Structure (SMILES),"Ki [1, 3] [nM]","IC50 [2, 4] [nM]",Ki ([1]; HPK1 mobility shift assay) [nM],"IC50 [2, 5] [nM]"
"CC(C)c1cc2c(c(CN)n1)CN(c1cccc(N3C(=O)OC[C@@H]3C)n1)C2=O [Example 41, 4-(aminomethyl)-2-{6-[(4S)-4-methyl-2-oxo-1,3-oxazolidin-3-yl]pyridin-2-yl}-6-(propan-2-yl)-2,3-dihydro-1H-pyrrolo[3,4-c]pyridin-1-one]",4.6,315,–,–
CCC(CC)n1cnnc1-c1cccc(N2Cc3c(cc(N4CCC[C@@H]4C)nc3CN)C2=O)n1 [Example 152],–,–,0.12,46
CCCn1c(C)nnc1-c1cccc(N2Cc3c(cc(N(C)CC)nc3CN)C2=O)n1 [Example 161],–,–,0.68,217
"CNCc1nc(N2[C@H](C)C[C@@H]2C)cc2c1CN(c1cccc(-c3nncn3C(C)C)n1)C2=O [Example 53, 6-[(2R,4S)-2,4-dimethylazetidin-1-yl]-4-[(methylamino)methyl]-2-{6-[4-(propan-2-yl)-4H-1,2,4-triazol-3-yl]pyridin-2-yl}-2,3-dihydro-1H-pyrrolo[3,4-c]pyridin-1-one]",0.61,489,–,–
"C[C@@H]1CCCN1c1cc2c(c(CN)n1)CN(c1cccc(N3C(=O)OC[C@@H]3CF)n1)C2=O [Example 68, 4-(aminomethyl)-2-{6-[(4R)-4-(fluoromethyl)-2-oxo-1,3-oxazolidin-3-yl]pyridin-2-yl}-6-[(2R)-2-methylpyrrolidin-1-yl]-2,3-dihydro-1H-pyrrolo[3,4-c]pyridin-1-one]",< 0.07,50,–,–
"CCN(c1cc2c(c(CN)n1)CN(c1cccc(N3C(=O)OC[C@@H]3CF)n1)C2=O)C(C)C [Example 123, 4-(aminomethyl)-6-[ethyl(propan-2-yl)amino]-2-{6-[(4R)-4-(fluoromethyl)-2-oxo-1,3-oxazolidin-3-yl]pyridin-2-yl}-2,3-dihydro-1H-pyrrolo[3,4-c]pyridin-1-one]",–,–,1.03,273
CCn1c(C)nnc1-c1cccc(N2Cc3c(cc(N4CCC[C@@H]4C)nc3CN)C2=O)n1 [Example 157],–,–,0.23,85
"CCCn1cnnc1-c1cccc(N2Cc3c(cc(C4(C)CC4)nc3CNC)C2=O)n1 [Example 94, 4-[(methylamino)methyl]-6-(1-methylcyclopropyl)-2-[6-(4-propyl-4H-1,2,4-triazol-3-yl)pyridin-2-yl]-2,3-dihydro-1H-pyrrolo[3,4-c]pyridin-1-one]",–,–,0.34,280
"CNCc1nc(N(C)C(C)C)cc2c1CN(c1cccc(-c3nncn3C)n1)C2=O [Example 81, 4-[(methylamino)methyl]-6-[methyl(propan-2-yl)amino]-2-[6-(4-methyl-4H-1,2,4-triazol-3-yl)pyridin-2-yl]-2,3-dihydro-1H-pyrrolo[3,4-c]pyridin-1-one]",–,–,0.58,406
"CCn1c(C)nnc1-c1cccc(N2Cc3c(cc(N4[C@H](C)CC[C@H]4C)nc3CNC)C2=O)n1 [Example 111, 6-[(2R,5R)-2,5-dimethylpyrrolidin-1-yl]-2-[6-(4-ethyl-5-methyl-4H-1,2,4-triazol-3-yl)pyridin-2-yl]-4-[(methylamino)methyl]-2,3-dihydro-1H-pyrrolo[3,4-c]pyridin-1-one]",–,–,1.01,147
CCN(C)c1cc2c(c(CN)n1)CN(c1cccc(-c3nnc(C)n3CC)n1)C2=O [Example 171],–,–,0.34,180
CCN(c1cc2c(c(CN)n1)CN(c1cccc(-c3nnc(C)n3CC)n1)C2=O)C(C)C [Example 167],–,–,0.7,391
"CCCn1cnnc1-c1cccc(N2Cc3c(cc(N4[C@H](C)CC[C@H]4C)nc3CN)C2=O)n1 [Example 136, 4-(aminomethyl)-6-[(2R,5R)-2,5-dimethylpyrrolidin-1-yl]-2-[6-(4-propyl-4H-1,2,4-triazol-3-yl)pyridin-2-yl]-2,3-dihydro-1H-pyrrolo[3,4-c]pyridin-1-one]",–,–,0.73,106
"CC[C@@H](C)n1cnnc1-c1cccc(N2Cc3c(cc(C4(C)CC4)nc3CNC)C2=O)n1 [Example 139, 2-(6-{4-[(2R)-butan-2-yl]-4H-1,2,4-triazol-3-yl}pyridin-2-yl)-4-[(methylamino)methyl]-6-(1-methylcyclopropyl)-2,3-dihydro-1H-pyrrolo[3,4-c]pyridin-1-one]",–,–,0.46,266
Cc1nnc(-c2cccc(N3Cc4c(cc(N(C)C(C)C)nc4CN)C3=O)n2)n1C(C)C [Example 165],–,–,0.28,114
"CC[C@H](C)n1cnnc1-c1cccc(N2Cc3c(cc(C4(C)CC4)nc3CNC)C2=O)n1 [Example 58, 2-(6-{4-[(2S)-butan-2-yl]-4H-1,2,4-triazol-3-yl}pyridin-2-yl)-4-[(methylamino)methyl]-6-(1-methylcyclopropyl)-2,3-dihydro-1H-pyrrolo[3,4-c]pyridin-1-one]",0.16,103,–,–

# The remaining lines, values ahead:
"Ki [1, 3] [nM]","IC50 [2, 4] [nM]",Ki ([1]; HPK1 mobility shift assay) [nM],"IC50 [2, 5] [nM]",Structure (SMILES)
–,–,0.31,93,"CCC(CC)n1cnnc1-c1cccc(N2Cc3c(cc(C4CC4)nc3CN)C2=O)n1 [Example 129, 4-(aminomethyl)-6-cyclopropyl-2-{6-[4-(pentan-3-yl)-4H-1,2,4-triazol-3-yl]pyridin-2-yl}-2,3-dihydro-1H-pyrrolo[3,4-c]pyridin-1-one]"
1.46,730,–,–,"CNCc1nc(C2(C)CC2)cc2c1CN(c1cccc(-c3nncn3C(C)C)n1)C2=O [Example 7, 4-[(methylamino)methyl]-6-(1-methylcyclopropyl)-2-{6-[4-(propan-2-yl)-4H-1,2,4-triazol-3-yl]pyridin-2-yl}-2,3-dihydro-1H-pyrrolo[3,4-c]pyridin-1-one]"
–,–,0.13,51,"CNCc1nc(N2CCC[C@H]2C)cc2c1CN(c1cccc(-c3nncn3C(C)C)n1)C2=O [Example 104, 4-[(methylamino)methyl]-6-[(2R)-2-methylpyrrolidin-1-yl]-2-{6-[4-(propan-2-yl)-4H-1,2,4-triazol-3-yl]pyridin-2-yl}-2,3-dihydro-1H-pyrrolo[3,4-c]pyridin-1-one]"
–,–,0.1,50,"C[C@@H]1CCCN1c1cc2c(c(CN)n1)CN(c1cccc(N3C(=O)OC[C@@H]3C)n1)C2=O [Example 125, 4-(aminomethyl)-2-{6-[(4S)-4-methyl-2-oxo-1,3-oxazolidin-3-yl]pyridin-2-yl}-6-[(2R)-2-methylpyrrolidin-1-yl]-2,3-dihydro-1H-pyrrolo[3,4-c]pyridin-1-one]"
0.18,88,–,–,"CCn1c(C)nnc1-c1cccc(N2Cc3c(cc(N4CCC[C@H]4C)nc3CN)C2=O)n1 [Example 61, 4-(aminomethyl)-2-[6-(4-ethyl-5-methyl-4H-1,2,4-triazol-3-yl)pyridin-2-yl]-6-[(2R)-2-methylpyrrolidin-1-yl]-2,3-dihydro-1H-pyrrolo[3,4-c]pyridin-1-one]"
0.14,94,–,–,"CNCc1nc(N)cc2c1CN(c1cccc(-c3nncn3C(C)C)n1)C2=O [Example 50, 6-amino-4-[(methylamino)methyl]-2-{6-[4-(propan-2-yl)-4H-1,2,4-triazol-3-yl]pyridin-2-yl}-2,3-dihydro-1H-pyrrolo[3,4-c]pyridin-1-one]"
0.2,155,–,–,"CC(C)n1cnnc1-c1cccc(N2Cc3c(cc(N(C)C)nc3CN)C2=O)n1 [Example 12, 4-(aminomethyl)-6-(dimethylamino)-2-{6-[4-(propan-2-yl)-4H-1,2,4-triazol-3-yl]pyridin-2-yl}-2,3-dihydro-1H-pyrrolo[3,4-c]pyridin-1-one]"
0.28,134,–,–,"CNCc1nc(N2CCC2)cc2c1CN(c1cccc(N3C(=O)OC[C@@H]3C)n1)C2=O [Example 33, 6-(azetidin-1-yl)-4-[(methylamino)methyl]-2-{6-[(4S)-4-methyl-2-oxo-1,3-oxazolidin-3-yl]pyridin-2-yl}-2,3-dihydro-1H-pyrrolo[3,4-c]pyridin-1-one]"
–,–,0.15,151,CCn1c(C)nnc1-c1cccc(N2Cc3c(cc(N4CCCC4(C)C)nc3CN)C2=O)n1 [Example 154]
1.46,730,–,–,"CNCc1nc(C2(C)CC2)cc2c1CN(c1cccc(N3C(=O)OC[C@@H]3C)n1)C2=O [Example 49, 4-[(methylamino)methyl]-6-(1-methylcyclopropyl)-2-{6-[(4S)-4-methyl-2-oxo-1,3-oxazolidin-3-yl]pyridin-2-yl}-2,3-dihydro-1H-pyrrolo[3,4-c]pyridin-1-one]"
–,–,0.94,217,"CCn1cnnc1-c1cccc(N2Cc3c(cc(C4CCC4)nc3CNC)C2=O)n1 [Example 101, 6-cyclobutyl-2-[6-(4-ethyl-4H-1,2,4-triazol-3-yl)pyridin-2-yl]-4-[(methylamino)methyl]-2,3-dihydro-1H-pyrrolo[3,4-c]pyridin-1-one]"
